Patent US20250101023A1, “HETEROARYL DERIVATIVE AND USES THEREOF” (IUCF-HYU (INDUSTRY-UNIVERSITY COOPERATION FOUNDATION …, priority 2022, published 2025)

Experiments:
[1] = target: MAPKAPK5/PRAK (Homo sapiens (Human), UniProt Q8IW41); assay: Kinome-wide profiling; assay type: biochemical; settings: read-out: % Residual Activity (mean)
[2] = target: ULK3 (Homo sapiens (Human), UniProt Q6PHR2); assay: Kinome-wide profiling; assay type: biochemical; settings: read-out: % Residual Activity (mean)
[3] = target: MEK2 (Homo sapiens (Human), UniProt P36507); assay: Kinome-wide profiling; assay type: biochemical; settings: read-out: % Residual Activity (mean)
[4] = target: EPHB2 (Homo sapiens (Human), UniProt P29323); assay: Kinome-wide profiling; assay type: biochemical; settings: read-out: % Residual Activity (mean)
[5] = target: PAK5 (Homo sapiens (Human), UniProt Q9P286); assay: Kinome-wide profiling; assay type: biochemical; settings: read-out: % Residual Activity (mean)
[6] = target: DYRK1/DYRKIA (Homo sapiens (Human), UniProt Q13627); assay: Kinome-wide profiling; assay type: biochemical; settings: read-out: % Residual Activity (mean)
[7] = target: NEK6 (Homo sapiens (Human), UniProt Q9HC98); assay: Kinome-wide profiling; assay type: biochemical; settings: read-out: % Residual Activity (mean)
[8] = target: AXL (Homo sapiens (Human), UniProt P30530); assay: Kinome-wide profiling; assay type: biochemical; settings: read-out: % Residual Activity (mean)
[9] = target: ULK2 (Homo sapiens (Human), UniProt Q8IYT8); assay: Kinome-wide profiling; assay type: biochemical; settings: read-out: % Residual Activity (mean)
[10] = target: ZIPK/DAPK3 (Homo sapiens (Human), UniProt O43293); assay: Kinome-wide profiling; assay type: biochemical; settings: read-out: % Residual Activity (mean)
[11] = target: PKN3/PRK3 (Homo sapiens (Human), UniProt Q6P5Z2); assay: Kinome-wide profiling; assay type: biochemical; settings: read-out: % Residual Activity (mean)
[12] = target: MST4 (Homo sapiens (Human), UniProt Q9P289); assay: Kinome-wide profiling; assay type: biochemical; settings: read-out: % Residual Activity (mean)
[13] = target: Aurora B (Homo sapiens (Human), UniProt Q96GD4); assay: Kinome-wide profiling; assay type: biochemical; settings: read-out: % Residual Activity (mean)
[14] = target: STK32C/YANK3 (Homo sapiens (Human), UniProt Q86UX6); assay: Kinome-wide profiling; assay type: biochemical; settings: read-out: % Residual Activity (mean)
[15] = target: SGK1 (Homo sapiens (Human), UniProt O00141); assay: Kinome-wide profiling; assay type: biochemical; settings: read-out: % Residual Activity (mean)
[16] = target: EPHB4 (Homo sapiens (Human), UniProt P54760); assay: Kinome-wide profiling; assay type: biochemical; settings: read-out: % Residual Activity (mean)
[17] = target: PKCmu/PRKD1 (Homo sapiens (Human), UniProt Q15139); assay: Kinome-wide profiling; assay type: biochemical; settings: read-out: % Residual Activity (mean)
[18] = target: SIK1 (Homo sapiens (Human), UniProt P57059); assay: Kinome-wide profiling; assay type: biochemical; settings: read-out: % Residual Activity (mean)
[19] = target: CDK18/cyclin Y (PCTK3) (Homo sapiens (Human), UniProt Q07002); assay: Kinome-wide profiling; assay type: biochemical; settings: read-out: % Residual Activity (mean)
[20] = target: CK1d (Homo sapiens (Human), UniProt P48730); assay: Kinome-wide profiling; assay type: biochemical; settings: read-out: % Residual Activity (mean)
[21] = target: STK39/STLK3 (Homo sapiens (Human), UniProt Q9UEW8); assay: Kinome-wide profiling; assay type: biochemical; settings: read-out: % Residual Activity (mean)
[22] = target: PAK3 (Homo sapiens (Human), UniProt O75914); assay: Kinome-wide profiling; assay type: biochemical; settings: read-out: % Residual Activity (mean)
[23] = target: DDR2 (Homo sapiens (Human), UniProt Q16832); assay: Kinome-wide profiling; assay type: biochemical; settings: read-out: % Residual Activity (mean)
[24] = target: DCAMKL1 (Homo sapiens (Human), UniProt O15075); assay: Kinome-wide profiling; assay type: biochemical; settings: read-out: % Residual Activity (mean)
[25] = target: CYP1A2 (Homo sapiens (Human), UniProt P05177); assay: in vitro; assay type: in vitro ADME
Protocol: 5 derivatives were evaluated for in vitro metabolic stability in liver microsomes from three different species (human, dog, mouse) and for inhibitory activity against 5 representative cytochrome P450 enzymes (CYPs)(Table 3). In terms of liver microsomal stability, the 2′-pyridyl group is more suitable than the α-methyl-4′-pyridyl group as the terminal aromatic group at position 6, and the aminopyrimidyl group is better than the aminopyridyl group as a substituent at position 2.

[26] = target: PIM2 (Homo sapiens (Human), UniProt Q9P1W9); assay: Kinome-wide profiling; assay type: biochemical; settings: read-out: % Residual Activity (mean)
[27] = target: FLT3 (Homo sapiens (Human), UniProt P36888); assay: Kinome-wide profiling; assay type: biochemical; settings: read-out: % Residual Activity (mean)
[28] = target: MSK1/RPS6KA5 (Homo sapiens (Human), UniProt O75582); assay: Kinome-wide profiling; assay type: biochemical; settings: read-out: % Residual Activity (mean)
[29] = target: RON/MST1R (Homo sapiens (Human), UniProt Q04912); assay: Kinome-wide profiling; assay type: biochemical; settings: read-out: % Residual Activity (mean)
[30] = target: WNK1 (Homo sapiens (Human), UniProt Q9H4A3); assay: Kinome-wide profiling; assay type: biochemical; settings: read-out: % Residual Activity (mean)
[31] = target: ITK (Homo sapiens (Human), UniProt Q08881); assay: Kinome-wide profiling; assay type: biochemical; settings: read-out: % Residual Activity (mean)
[32] = target: CTK/MATK (Homo sapiens (Human), UniProt P42679); assay: Kinome-wide profiling; assay type: biochemical; settings: read-out: % Residual Activity (mean)
[33] = target: LATS1 (Homo sapiens (Human), UniProt O95835); assay: Kinome-wide profiling; assay type: biochemical; settings: read-out: % Residual Activity (mean)
[34] = target: TIE2/TEK (Homo sapiens (Human), UniProt Q02763); assay: Kinome-wide profiling; assay type: biochemical; settings: read-out: % Residual Activity (mean)
[35] = target: CAMK2d (Homo sapiens (Human), UniProt Q13557); assay: Kinome-wide profiling; assay type: biochemical; settings: read-out: % Residual Activity (mean)
[36] = target: CDK2/CYCLIN E (Homo sapiens (Human), UniProt P24941); assay: Kinome-wide profiling; assay type: biochemical; settings: read-out: % Residual Activity (mean)
[37] = target: JNK3 (Homo sapiens (Human), UniProt P53779); assay: Kinome-wide profiling; assay type: biochemical; settings: read-out: % Residual Activity (mean)

Chain of ZIPK/DAPK3 (O43293 whole entry): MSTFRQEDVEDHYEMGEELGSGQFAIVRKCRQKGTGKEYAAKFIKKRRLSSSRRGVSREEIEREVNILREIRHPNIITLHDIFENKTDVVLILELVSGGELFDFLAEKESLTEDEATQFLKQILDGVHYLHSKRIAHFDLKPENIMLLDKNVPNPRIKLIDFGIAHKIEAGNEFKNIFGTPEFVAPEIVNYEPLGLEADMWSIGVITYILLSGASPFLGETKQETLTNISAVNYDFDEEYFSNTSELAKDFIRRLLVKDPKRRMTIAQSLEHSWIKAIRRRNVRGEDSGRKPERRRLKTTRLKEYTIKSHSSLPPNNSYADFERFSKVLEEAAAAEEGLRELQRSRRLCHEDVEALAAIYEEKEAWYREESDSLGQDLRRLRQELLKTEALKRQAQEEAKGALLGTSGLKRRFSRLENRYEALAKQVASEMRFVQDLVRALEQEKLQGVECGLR
Chain of DDR2 (Q16832 22-855): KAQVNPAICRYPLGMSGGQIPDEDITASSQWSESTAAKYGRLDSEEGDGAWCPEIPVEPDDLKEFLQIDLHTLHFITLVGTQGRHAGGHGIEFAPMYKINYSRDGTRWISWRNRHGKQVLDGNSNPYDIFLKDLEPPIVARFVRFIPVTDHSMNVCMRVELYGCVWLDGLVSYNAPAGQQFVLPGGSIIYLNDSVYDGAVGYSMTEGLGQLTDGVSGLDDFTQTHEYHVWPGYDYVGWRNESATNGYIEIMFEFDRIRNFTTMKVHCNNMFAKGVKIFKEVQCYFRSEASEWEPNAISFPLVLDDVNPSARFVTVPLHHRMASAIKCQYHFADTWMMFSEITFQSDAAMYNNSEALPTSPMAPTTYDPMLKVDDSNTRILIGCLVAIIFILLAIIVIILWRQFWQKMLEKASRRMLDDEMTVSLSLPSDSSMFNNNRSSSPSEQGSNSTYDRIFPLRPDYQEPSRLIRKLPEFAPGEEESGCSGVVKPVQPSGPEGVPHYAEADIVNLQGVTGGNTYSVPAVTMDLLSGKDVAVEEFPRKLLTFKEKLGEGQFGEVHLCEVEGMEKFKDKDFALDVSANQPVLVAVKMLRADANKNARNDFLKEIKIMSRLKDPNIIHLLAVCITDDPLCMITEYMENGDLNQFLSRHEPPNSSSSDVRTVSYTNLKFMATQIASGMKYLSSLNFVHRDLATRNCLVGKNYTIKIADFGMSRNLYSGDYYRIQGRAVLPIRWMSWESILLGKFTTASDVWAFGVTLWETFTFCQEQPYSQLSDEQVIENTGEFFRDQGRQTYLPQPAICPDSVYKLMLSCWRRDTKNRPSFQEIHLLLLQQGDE
Chain of Aurora B (Q96GD4 whole entry): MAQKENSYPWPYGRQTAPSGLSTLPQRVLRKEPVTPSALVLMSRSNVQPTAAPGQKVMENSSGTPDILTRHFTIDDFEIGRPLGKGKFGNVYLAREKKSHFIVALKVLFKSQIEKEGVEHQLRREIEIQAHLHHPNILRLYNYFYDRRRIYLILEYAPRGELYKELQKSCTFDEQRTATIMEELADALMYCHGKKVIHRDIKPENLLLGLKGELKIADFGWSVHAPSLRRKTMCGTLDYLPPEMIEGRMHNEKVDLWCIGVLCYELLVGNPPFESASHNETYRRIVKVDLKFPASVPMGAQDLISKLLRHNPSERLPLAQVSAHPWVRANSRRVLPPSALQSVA
Chain of CYP1A2 (P05177 whole entry): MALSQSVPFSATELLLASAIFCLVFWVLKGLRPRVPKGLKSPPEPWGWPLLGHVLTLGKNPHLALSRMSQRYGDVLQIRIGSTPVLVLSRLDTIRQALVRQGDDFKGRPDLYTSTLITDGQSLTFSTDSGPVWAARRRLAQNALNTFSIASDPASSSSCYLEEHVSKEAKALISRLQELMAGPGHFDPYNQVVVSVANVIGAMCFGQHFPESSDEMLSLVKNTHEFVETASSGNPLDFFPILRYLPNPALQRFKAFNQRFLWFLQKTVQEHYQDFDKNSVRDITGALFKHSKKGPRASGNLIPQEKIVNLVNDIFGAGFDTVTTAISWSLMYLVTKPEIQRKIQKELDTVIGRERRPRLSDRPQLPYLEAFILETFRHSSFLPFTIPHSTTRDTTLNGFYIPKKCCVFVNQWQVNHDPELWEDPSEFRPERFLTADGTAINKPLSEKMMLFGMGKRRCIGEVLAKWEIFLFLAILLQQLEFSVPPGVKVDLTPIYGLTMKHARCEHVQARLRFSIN
Chain of LATS1 (O95835 whole entry): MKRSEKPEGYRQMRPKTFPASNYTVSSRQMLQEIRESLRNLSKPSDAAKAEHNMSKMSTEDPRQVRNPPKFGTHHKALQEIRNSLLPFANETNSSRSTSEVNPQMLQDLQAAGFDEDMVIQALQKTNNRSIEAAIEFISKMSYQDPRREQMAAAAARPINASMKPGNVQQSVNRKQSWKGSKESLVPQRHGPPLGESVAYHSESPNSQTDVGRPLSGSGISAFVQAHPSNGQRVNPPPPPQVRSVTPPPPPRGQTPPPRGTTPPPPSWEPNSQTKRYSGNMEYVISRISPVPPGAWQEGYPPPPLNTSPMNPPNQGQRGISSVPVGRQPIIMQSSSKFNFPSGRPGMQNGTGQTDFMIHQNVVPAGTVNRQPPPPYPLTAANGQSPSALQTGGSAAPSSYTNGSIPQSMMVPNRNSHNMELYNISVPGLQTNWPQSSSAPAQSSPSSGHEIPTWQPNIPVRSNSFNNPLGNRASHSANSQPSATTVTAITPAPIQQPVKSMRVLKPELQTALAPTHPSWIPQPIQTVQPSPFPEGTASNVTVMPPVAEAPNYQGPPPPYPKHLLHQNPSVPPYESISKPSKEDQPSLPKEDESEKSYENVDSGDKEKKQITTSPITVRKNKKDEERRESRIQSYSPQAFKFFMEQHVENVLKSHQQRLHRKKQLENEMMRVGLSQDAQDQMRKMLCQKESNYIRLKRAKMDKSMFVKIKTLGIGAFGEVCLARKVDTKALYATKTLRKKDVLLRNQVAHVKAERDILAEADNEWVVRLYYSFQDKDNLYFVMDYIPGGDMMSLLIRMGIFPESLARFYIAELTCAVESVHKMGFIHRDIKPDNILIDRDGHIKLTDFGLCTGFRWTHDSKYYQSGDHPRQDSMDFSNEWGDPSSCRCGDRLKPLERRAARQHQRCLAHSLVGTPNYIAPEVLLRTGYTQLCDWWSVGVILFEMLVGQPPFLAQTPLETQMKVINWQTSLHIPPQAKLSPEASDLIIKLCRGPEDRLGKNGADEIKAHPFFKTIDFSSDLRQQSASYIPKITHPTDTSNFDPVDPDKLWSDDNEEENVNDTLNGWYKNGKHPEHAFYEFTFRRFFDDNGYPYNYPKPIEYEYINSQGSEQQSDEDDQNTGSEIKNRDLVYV
Chain of RON/MST1R (Q04912 25-1400): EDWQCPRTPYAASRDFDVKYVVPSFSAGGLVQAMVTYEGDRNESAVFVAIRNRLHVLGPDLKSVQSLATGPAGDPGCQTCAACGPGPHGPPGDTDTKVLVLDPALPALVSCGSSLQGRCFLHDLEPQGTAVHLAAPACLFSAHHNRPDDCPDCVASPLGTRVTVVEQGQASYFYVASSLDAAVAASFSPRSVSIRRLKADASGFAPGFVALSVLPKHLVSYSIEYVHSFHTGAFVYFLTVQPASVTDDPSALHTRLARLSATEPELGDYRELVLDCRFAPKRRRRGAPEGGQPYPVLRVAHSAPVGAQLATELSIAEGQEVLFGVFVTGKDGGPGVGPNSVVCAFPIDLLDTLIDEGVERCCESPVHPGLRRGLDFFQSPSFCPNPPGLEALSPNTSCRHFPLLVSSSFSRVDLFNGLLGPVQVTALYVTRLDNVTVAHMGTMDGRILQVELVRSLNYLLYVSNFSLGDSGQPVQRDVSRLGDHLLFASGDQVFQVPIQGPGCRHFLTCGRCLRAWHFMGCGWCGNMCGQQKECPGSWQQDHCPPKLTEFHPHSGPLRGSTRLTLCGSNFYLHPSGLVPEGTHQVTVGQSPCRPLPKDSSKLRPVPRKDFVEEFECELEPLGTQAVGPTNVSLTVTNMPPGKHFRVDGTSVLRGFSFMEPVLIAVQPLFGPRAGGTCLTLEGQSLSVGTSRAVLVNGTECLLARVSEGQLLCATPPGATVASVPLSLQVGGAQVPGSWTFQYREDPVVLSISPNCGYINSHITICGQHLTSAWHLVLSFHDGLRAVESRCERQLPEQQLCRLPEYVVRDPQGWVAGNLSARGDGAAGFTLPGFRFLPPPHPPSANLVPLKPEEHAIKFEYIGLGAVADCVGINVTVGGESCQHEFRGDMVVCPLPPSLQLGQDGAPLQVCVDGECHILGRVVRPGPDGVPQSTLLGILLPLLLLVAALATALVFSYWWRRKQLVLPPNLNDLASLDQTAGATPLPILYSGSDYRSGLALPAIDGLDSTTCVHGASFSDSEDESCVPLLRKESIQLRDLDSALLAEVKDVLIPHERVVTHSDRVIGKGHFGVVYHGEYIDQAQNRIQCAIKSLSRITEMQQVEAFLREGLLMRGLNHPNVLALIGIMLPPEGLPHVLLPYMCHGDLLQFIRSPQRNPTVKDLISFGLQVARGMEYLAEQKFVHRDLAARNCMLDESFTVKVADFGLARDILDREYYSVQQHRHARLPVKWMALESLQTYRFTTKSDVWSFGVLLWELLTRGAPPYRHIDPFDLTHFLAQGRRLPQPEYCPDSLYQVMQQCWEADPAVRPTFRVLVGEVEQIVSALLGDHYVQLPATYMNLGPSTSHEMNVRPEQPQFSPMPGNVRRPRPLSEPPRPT
Chain of CK1d (P48730 whole entry): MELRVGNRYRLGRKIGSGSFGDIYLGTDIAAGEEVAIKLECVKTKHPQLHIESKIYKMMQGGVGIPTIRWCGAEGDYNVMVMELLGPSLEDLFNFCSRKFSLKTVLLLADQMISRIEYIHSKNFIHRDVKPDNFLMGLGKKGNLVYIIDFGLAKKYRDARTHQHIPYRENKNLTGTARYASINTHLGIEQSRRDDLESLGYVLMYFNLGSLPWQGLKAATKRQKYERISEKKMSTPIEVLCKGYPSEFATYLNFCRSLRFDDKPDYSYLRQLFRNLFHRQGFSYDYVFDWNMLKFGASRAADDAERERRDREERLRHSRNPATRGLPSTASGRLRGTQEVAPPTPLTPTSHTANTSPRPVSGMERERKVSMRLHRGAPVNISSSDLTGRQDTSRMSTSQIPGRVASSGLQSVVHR

SMILES: CCn1cnc2c(NCc3ccc(-c4ccccn4)nc3)nc(-c3ccc(N)nc3)nc21 [Example 53, N-([2,2′-bipyridin]-5-ylmethyl)-2-(6-aminopyridin-3-yl)-9-ethyl-9H-purin-6-amine]
- remaining activity at 10 µM [1]: 103%
- remaining activity at 10 µM [2]: 91.8%
- remaining activity at 10 µM [3]: 176%
- remaining activity at 10 µM [4]: 2.52%
- remaining activity at 10 µM [5]: 7.55%
- remaining activity at 10 µM [6]: 3.85%
- remaining activity at 10 µM [7]: 92.1%
- remaining activity at 10 µM [8]: 44.2%
- remaining activity at 10 µM [9]: 87.3%
- remaining activity at 10 µM [10]: 80.8%
- remaining activity at 10 µM [11]: 81.5%
- remaining activity at 10 µM [12]: 45.8%
- remaining activity at 10 µM [13]: 73%
- remaining activity at 10 µM [14]: 86.7%
- remaining activity at 10 µM [15]: 84.9%
- remaining activity at 10 µM [16]: 23.2%
- remaining activity at 10 µM [17]: 70.3%
- remaining activity at 10 µM [18]: 56.3%
- remaining activity at 10 µM [19]: 2.46%
- remaining activity at 10 µM [20]: 10.2%
- remaining activity at 10 µM [21]: 29.6%
- remaining activity at 10 µM [22]: 29.1%
- remaining activity at 10 µM [23]: 87.2%
- remaining activity at 10 µM [24]: 72.6%
- activity at 10 µM [25]: 74.7%
- remaining activity at 10 µM [26]: 93.8%
- remaining activity at 10 µM [27]: 40.2%
- remaining activity at 10 µM [28]: 80.5%
- remaining activity at 10 µM [29]: 86.8%
- remaining activity at 10 µM [30]: 82.5%
- remaining activity at 10 µM [31]: 81.7%
- remaining activity at 10 µM [32]: 87.6%
- remaining activity at 10 µM [33]: 85%
- remaining activity at 10 µM [34]: 34.8%
- remaining activity at 10 µM [35]: 61.7%
- remaining activity at 10 µM [36]: 4.01%
- remaining activity at 10 µM [37]: 48.7%
